pEC50: −log10 of the molar value.

A short description of the first assay: Inhibition of SDHB in human U2OS cells over-expressing Bim assessed as inhibition of apoptosis preincubated for 1 hr followed by doxycyclin addition to induce Bim protein expression measured after 24 hrs by Cell Titer-Glo assay. For orientation: In ATP-based viability assays light output follows the ATP content of the culture.
Usually pEC50 stands for −log10 of the EC50, conventionally taken in molar units. On to `COc1ccc(Cn2cc(-c3cc(C(F)(F)F)nc(S(=O)(=O)CCCC(=O)N4CCCCC4)n3)ccc2=O)cc1OC`, for which the pEC50 is 8.85.

As for `COc1ccc(Cn2cc(-c3cc(C(F)(F)F)nc(S(=O)(=O)CCCC(=O)N4CCCC4)n3)ccc2=O)cc1OC`, the negative logarithm of the EC50 (pEC50) is 7.57.

On to `COCCCS(=O)(=O)c1nc(-c2ccc(=O)n(Cc3ccc(OC)c(OC)c3)c2)cc(C(F)(F)F)n1`, for which the pEC50 was 6.55.

As for `COCCS(=O)(=O)c1nc(-c2ccc(=O)n(Cc3ccc(OC)c(OC)c3)c2)cc(C(F)(F)F)n1`, the pEC50 was 6.67.

Consider `CCCCCCCS(=O)(=O)c1nc(-c2ccc(=O)n(Cc3ccc(OC)c(OC)c3)c2)cc(C(F)(F)F)n1`, for which the pEC50 is 6.60.

`COc1ccc(Cn2cc(-c3cc(C(F)(F)F)nc(S(C)(=O)=O)n3)ccc2=O)cc1OC`: the negative-log EC50 (pEC50) was 7.60.

On to `CS(=O)(=O)c1nc(-c2ccc(=O)n(Cc3ccc(C#N)cc3)c2)cc(C(F)(F)F)n1`, for which the pEC50 is 5.46.

On to `CS(=O)(=O)c1nc(-c2ccc(=O)n(Cc3cccc(C#N)c3)c2)cc(C(F)(F)F)n1`, for which the negative-log EC50 (pEC50) was 5.39.

Turning to `C#Cc1cccc(Cn2cc(-c3cc(C(F)(F)F)nc(S(C)(=O)=O)n3)ccc2=O)c1`, the negative logarithm of the EC50 (pEC50) is 5.35.

With `COc1ccc(Cn2cc(-c3cc(C(F)(F)F)nc(S(C)(=O)=O)n3)ccc2=O)cc1`, the pEC50 was 7.03.

Turning to `CCOc1cccc(Cn2cc(-c3cc(C(F)(F)F)nc(S(C)(=O)=O)n3)ccc2=O)c1`, the pEC50 is 6.96.

With `COc1cccc(Cn2cc(-c3cc(C(F)(F)F)nc(S(C)(=O)=O)n3)ccc2=O)c1`, the pEC50 is 7.24.

With `CS(=O)(=O)c1nc(-c2ccc(=O)n(Cc3cccc(O)c3)c2)cc(C(F)(F)F)n1`, the pEC50 was 5.74.

Take `CS(=O)(=O)c1nc(-c2ccc(=O)n(Cc3cccc(Cl)c3)c2)cc(C(F)(F)F)n1`: the pEC50 was 6.59.

As to `CS(=O)(=O)c1nc(-c2ccc(=O)n(Cc3ccccc3Cl)c2)cc(C(F)(F)F)n1`, the pEC50 is 5.94.

Take `CS(=O)(=O)c1nc(-c2ccc(=O)n(Cc3ccccc3)c2)cc(C(F)(F)F)n1`: the negative-log EC50 (pEC50) was 5.94.

Regarding `CS(=O)(=O)c1nc(-c2cccc(Oc3ccccc3)c2)cc(C(F)(F)F)n1`, the negative-log EC50 (pEC50) is 5.06.

Take `CN(C)C(=O)c1cccc(-c2cc(C(F)(F)F)nc(S(C)(=O)=O)n2)c1`: the pEC50 is below 4.70.

`Cc1ccc(-c2cc(C(F)(F)F)nc(S(C)(=O)=O)n2)cc1`: the negative-log EC50 (pEC50) is 5.20.

For the compound `Cc1cccc(-c2cc(C(F)(F)F)nc(S(C)(=O)=O)n2)c1`, the negative logarithm of the EC50 (pEC50) is 5.46.

On to `Cc1ccccc1-c1cc(C(F)(F)F)nc(S(C)(=O)=O)n1`, for which the negative logarithm of the EC50 (pEC50) was 5.18.

With `CS(=O)(=O)c1nc(-c2cccs2)cc(C2CCC(=O)N2)n1` (centres undefined), the pEC50 is below 4.70.

`CS(=O)(=O)c1nc(-c2cccs2)cc(-c2cccs2)n1`: the pEC50 is below 4.70.

As to `Cc1cc(-c2cccs2)nc(S(C)(=O)=O)n1`, the pEC50 is below 4.70.

On to `O=S(=O)(Cc1ccc(-c2ccccc2)cc1)c1nc(-c2cccs2)cc(C(F)(F)F)n1`, for which the negative-log EC50 (pEC50) was 5.38.

Take `CCOC(=O)CCS(=O)(=O)c1nc(-c2cccs2)cc(C(F)(F)F)n1`: the negative-log EC50 (pEC50) was 5.95.

For the compound `CCS(=O)(=O)c1nc(-c2cccs2)cc(C(F)(F)F)n1`, the negative logarithm of the EC50 (pEC50) is 5.85.

As to `COC(=O)c1cccc(-c2cc(C(F)(F)F)nc(S(C)(=O)=O)n2)c1`, the pEC50 is 5.45.

As for `COC(=O)c1ccccc1-c1cc(C(F)(F)F)nc(S(C)(=O)=O)n1`, the negative logarithm of the EC50 (pEC50) was 5.15.

On to `COc1ccc(Cn2cc(-c3cc(C(F)(F)F)nc(S(=O)(=O)CCCC(=O)NC45CC6CC(CC(C6)C4)C5)n3)ccc2=O)cc1OC`, for which the negative-log EC50 (pEC50) is 9.38.

`Cc1ccc(O)c(NC(=O)CCCS(=O)(=O)c2nc(-c3cccs3)cc(C(F)(F)F)n2)c1`: the negative logarithm of the EC50 (pEC50) was 5.40.

For the compound `COc1ccc(Cn2cc(-c3cc(C(F)(F)F)nc(S(=O)(=O)CCCC(N)=O)n3)ccc2=O)cc1OC`, the pEC50 was below 4.70.

In the case of `COc1ccc(Cn2cc(-c3cc(C(F)(F)F)nc(S(=O)(=O)CCCC(=O)N(C)C)n3)ccc2=O)cc1OC`, the pEC50 is 6.79.

For the compound `CCCCCS(=O)(=O)c1nc(-c2ccc(=O)n(Cc3ccc(OC)c(OC)c3)c2)cc(C(F)(F)F)n1`, the pEC50 is 6.44.

Regarding `C#Cc1ccc(Cn2cc(-c3cc(C(F)(F)F)nc(S(C)(=O)=O)n3)ccc2=O)cc1`, the pEC50 is 6.09.

In the case of `CCCOc1cccc(Cn2cc(-c3cc(C(F)(F)F)nc(S(C)(=O)=O)n3)ccc2=O)c1`, the pEC50 was 7.16.

Consider `CS(=O)(=O)c1nc(-c2ccc(=O)n(Cc3ccc(Cl)cc3)c2)cc(C(F)(F)F)n1`, for which the negative logarithm of the EC50 (pEC50) was 7.18.

Consider `CS(=O)(=O)c1nc(-c2ccc(=O)[nH]c2)cc(C(F)(F)F)n1`, for which the pEC50 is below 4.70.

Consider `COC(=O)c1ccc(-c2cc(C(F)(F)F)nc(S(C)(=O)=O)n2)cc1`, for which the negative logarithm of the EC50 (pEC50) was below 4.70.

As to `CS(=O)(=O)c1nc(N=[N+]=[N-])cc(-c2cccs2)n1`, the pEC50 is below 4.70.

Consider `O=S(=O)(CCc1ccccc1)c1nc(-c2cccs2)cc(C(F)(F)F)n1`, for which the pEC50 was 5.80.

As for `CS(=O)(=O)c1nc(-c2ccccc2)cc(C(F)(F)F)n1` [MLS000044644], the pEC50 was 5.66.

With `CS(=O)(=O)c1nc(-c2cccs2)cc(C(F)(F)F)n1` [MLS000044645], the negative logarithm of the EC50 (pEC50) is 6.13.

The nature of the next assay: Inhibition of SDHB in human U2OS cells over-expressing tBid assessed as reduction in apoptosis preincubated for 1 hr followed by doxycyclin addition to induce tBid protein expression measured after 24 hrs by Cell Titer-Glo assay.
For `COc1ccc(Cn2cc(-c3cc(C(F)(F)F)nc(S(=O)(=O)CCCC(=O)NC45CC6CC(CC(C6)C4)C5)n3)ccc2=O)cc1OC`, the negative logarithm of the EC50 (pEC50) was 9.64.

For the origin of these results see BindingDB's records for doi:10.1021/acsmedchemlett.6b00489 (Peking University, 2017).
